Assay results published in patent publication US11458153B2, “Drug delivery composition comprising a self-assembled gelator” (The Brigham and Women's Hospital, Inc., priority 2008, dated 2022).

Columns and labels:
[1] = tested on: arthritis bearing mouse joints (ankles and knees); conditions: direct injection into joints, sectioned after 8 days, fluorescence microscopy
Excerpt: In vivo: DiD encapsulated nanofiber gels (salicin-deconate nanofibers, prepared as above), were directly injected into the arthritis bearing mouse joints (ankles and knees) to examine the retention of nanofibers within the joints. After 8 days, ankles and knees were sectioned and imaged under fluorescence microscopy to examine the presence of nanofibers.
In vivo: DiD encapsulated nanofiber gels were directly injected into the arthritis bearing mouse joints (ankles and knees) to examine the retention of nanofibers within the joints. After 8 days, ankles and knees were sectioned and imaged under fluorescence microscopy to examine the presence of nanofibers.

[2] = DiD-encapsulated fibers, synovial fluid, 37° C.
Protocol: In vitro. […] Fibers were incubated with synovial fluid at 37° C. that was extracted from human arthritic joints (inflamed).

[3] = Dye-encapsulated nanofibers in absence of synovial fluid (PBS); assay type: physicochemical; conditions: DiD-encapsulated fibers in PBS
Excerpt: In vitro. […] Fibers were isolated by repetitive centrifugation and washing steps.

[4] = Gelation ability of polyol amphiphiles in water and organic solvents; assay type: physicochemical; parameters: key: G = stable gel at room temperature; P = precipitate; Sol = soluble
Excerpt: (§1) Examples of suitable solvents include water, salt water (such as a NaCl solution), different […] such as TRISZMA buffers, and alkaline and acidic solutions. In addition to water-based solutions, the compounds can gel various aromatic and non-aromatic organic solvents, such as benzene, toluene, hexane, and acetonitrile. All the gels obtained in Table 7 were thermally reversible. Above their gelation temperature, the gels dissolved in solvent, but could be returned to their original gel state upon cooling.

[5] = as above; assay type: physicochemical; parameters: key: G = gel; P = precipitate; S = soluble; I = insoluble; conditions: solvent CHCl3
Excerpt: as §1

| presence of nanofibers in joints [1] | period of slow degradation of fibers by enzymes [2] [days] | stability of nanofibers in absence of synovial fluid [3] | Structure (SMILES) | Gelation ability ([4]; solvent 1,4-dioxane) | Gelation ability ([4]; solvent CCl4) | Gelation ability ([4]; solvent CH3CN) | Gelation ability ([4]; solvent DMSO) | Gelation ability ([4]; solvent NaCl (40 mM)) | Gelation ability ([4]; solvent TRIS (50 mM)) | Gelation ability ([4]; solvent acetone) | Gelation ability ([4]; solvent acidic (pH < 3)) | Gelation ability ([4]; solvent basic (pH > 12)) | Gelation ability ([4]; solvent benzene) | Gelation ability ([4]; solvent cyclohexane) | Gelation ability ([4]; solvent toluene) | Gelation ability ([4]; solvent water) | Gelation ability [5] |
| --- | --- | --- | --- | --- | --- | --- | --- | --- | --- | --- | --- | --- | --- | --- | --- | --- | --- |
| localized within the joints | 15 | stable (in PBS) for months | CCCCCCCCCC(=O)OC[C@H]1O[C@@H](Oc2ccccc2CO)[C@H](O)[C@@H](O)[C@@H]1O [Salicin-deconate] | – | – | – | – | – | – | – | – | – | – | – | – | – | – |
| – | – | – | CCCCCCCCCCCC(=O)NC(CO)(CO)CO [polyol-12] | Sol | G | G | Sol | G | G | Sol | G | G | G | G | G | G | P |
